Results from PubChem BioAssay (NCI).
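Step 1: Grow cells in 96-well plates. Step 2: Expose to compound for 48 hours at 5 concentrations. Step 3: Interpolate endpoints linearly; if unreached, use highest concentration. TGI: total growth inhibition.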

Tests used:
Experiment in all cases: inhibition of tumour cell growth, NCI panel, 48 h
[1] = tested on: NCI-H522 lung
[2] = tested on: HT29 colon
[3] = tested on: HCT-116 colon
[4] = tested on: SNB-75 CNS
[5] = tested on: K-562 leukemia
[6] = tested on: UO-31 renal
[7] = tested on: COLO 205 colon
[8] = tested on: MOLT-4 leukemia
[9] = tested on: KM12 colon
[10] = tested on: SN12C renal
[11] = tested on: LXFL 529 NSCLC
[12] = tested on: SW-620 colon
[13] = tested on: DMS 273 small cell lung
[14] = tested on: ACHN renal
[15] = tested on: OVCAR-4 ovarian
[16] = tested on: XF 498 CNS
[17] = tested on: KM20L2 colon
[18] = tested on: OVCAR-8 ovarian
[19] = tested on: SF-268 CNS
[20] = tested on: UACC-62 melanoma
[21] = tested on: RXF 393 renal
[22] = tested on: SK-MEL-5 melanoma
[23] = tested on: HCC-2998 colon
[24] = tested on: SF-539 CNS
[25] = tested on: CCRF-CEM leukemia
[26] = tested on: SNB-19 CNS
[27] = tested on: HCT-15 colon
[28] = tested on: A498 renal
[29] = tested on: 786-0 renal
[30] = tested on: HOP-62 NSCLC
[31] = tested on: M19-MEL melanoma
[32] = tested on: SNB-78 CNS
[33] = tested on: A549 NSCLC
[34] = tested on: U251 CNS
[35] = tested on: DLD-1 colon
[36] = tested on: DMS 114 small cell lung
[37] = tested on: SK-MEL-28 melanoma
[38] = tested on: TK-10 renal
[39] = tested on: LOX IMVI melanoma
[40] = tested on: EKVX NSCLC
[41] = tested on: CAKI-1 renal
[42] = tested on: NCI-H226 lung
[43] = tested on: M14 melanoma
[44] = tested on: SK-MEL-2 melanoma
[45] = tested on: IGROV1 ovarian
[46] = tested on: SF-295 CNS
[47] = tested on: HOP-18 NSCLC
[48] = tested on: NCI-H23 lung
[49] = tested on: SK-OV-3 ovarian
[50] = tested on: UACC-257 melanoma
[51] = tested on: HL-60(TB) leukemia
[52] = tested on: OVCAR-5 ovarian
[53] = tested on: NCI-H460 lung
[54] = tested on: RPMI-8226 leukemia
[55] = tested on: MALME-3M melanoma
[56] = tested on: SR leukemia
[57] = tested on: OVCAR-3 ovarian
[58] = tested on: HOP-92 NSCLC
[59] = tested on: MCF7 breast
[60] = tested on: T-47D breast
[61] = tested on: MDA-N
[62] = tested on: MDA-MB-231 breast
[63] = tested on: NCI/ADR-RES ovarian
[64] = tested on: HS 578T breast
[65] = tested on: MDA-MB-435
[66] = tested on: BT-549 breast
[67] = tested on: PC-3 prostate
[68] = tested on: DU-145 prostate

Measured: TGI

FC(F)(F)P1C2C=CC(CC2)C1(F)F (centres undefined)
> 100 µM: [1] | [2] | [3] | [4] | [5] | [6] | [7] | [8] | [9] | [10] | [11] | [12] | [13] | [14] | [15] | [16] | [17] | [18] | [19] | [20] | [21] | [22] | [23] | [24] | [25] | [26] | [27] | [28] | [29] | [30] | [31] | [32] | [33] | [34] | [35] | [36] | [37] | [38] | [39] | [40] | [41] | [42] | [43] | [44] | [45] | [46] | [47] | [48] | [49] | [50] | [51] | [52] | [53] | [54] | [55]

Cc1c(C(=O)CSc2nc3ccc([N+](=O)[O-])cc3[nH]2)c(=O)n(-c2ccccc2)n1C
> 100 µM: [1] | [2] | [3] | [4] | [6] | [7] | [8] | [9] | [10] | [11] | [12] | [13] | [14] | [56] | [15] | [16] | [18] | [19] | [22] | [23] | [24] | [25] | [26] | [27] | [28] | [29] | [30] | [31] | [33] | [34] | [35] | [36] | [37] | [38] | [39] | [41] | [42] | [43] | [44] | [45] | [46] | [57] | [48] | [58] | [49] | [50] | [51] | [52] | [53] | [54] | [55]

CC(=O)Oc1cc(OC(C)=O)c2c(=O)c3ccccc3n(C)c2c1
77.6 µM: [48]
> 100 µM: [8] | [9] | [11] | [13] | [15] | [20] | [26] | [27] | [33] | [38] | [57]
40.5 µM: [42]
76.5 µM: [19]
68.4 µM: [45]
84.1 µM: [50]
48.8 µM: [55]
52.8 µM: [1]
57.1 µM: [47]
76.3 µM: [4]
97.1 µM: [44]
88.2 µM: [10]
29.7 µM: [22]
59.9 µM: [37]
67.5 µM: [53]
65.1 µM: [14]
42.2 µM: [24]
75.2 µM: [21]
53.8 µM: [6]
64.5 µM: [2]
96.5 µM: [36]
74.7 µM: [3]
44.2 µM: [46]
91.3 µM: [35]
28.1 µM: [39]
64.4 µM: [18]
59.8 µM: [49]
52.2 µM: [31]
84.3 µM: [32]

N#Cc1cccc(C2ON=C(c3ccc([N+](=O)[O-])cc3)N2C23CC4CC(CC(C4)C2)C3)c1 (centres undefined)
31 µM: [52]
76.8 µM: [15]
> 100 µM: [1] | [2] | [3] | [4] | [5] | [6] | [7] | [59] | [8] | [60] | [9] | [10] | [12] | [14] | [56] | [18] | [19] | [61] | [20] | [21] | [62] | [63] | [22] | [23] | [24] | [25] | [26] | [27] | [28] | [29] | [30] | [33] | [34] | [37] | [38] | [39] | [40] | [41] | [42] | [43] | [44] | [45] | [64] | [46] | [65] | [66] | [57] | [48] | [67] | [58] | [68] | [49] | [50] | [51] | [53] | [54] | [55]
